We go through two compounds from patent US20260216239A1 (Arizona Board of Regents on Behalf of the University of …, priority 2020, published 2026).

Structures are written as SMILES. Where two headings read alike, the source gives them in different places.

The test system of experiment [1] is human plasma. In kind it is biochemical. As to the method: Given that the only compounds present with anions different from RuCl3 potentially available to displace Cl in the PBS used was KH2PO4 (1.5 mM) and Na2HPO4 (8.1 mM), a comparison of the effects of 1 and 10 μM RuCl3 (final concentration) dissolved in dH2O or PBS was performed in plasma as a 1% addition (v/v) with coagulation assessed via thrombelastography.
The volumes of subsequently described plasmatic and other additives summed to a final volume of 360 μL. Samples were composed of 320 μL of plasma; 16.4 μL of PBS, 20 μL of 200 mM CaCl2), and 3.6 μL of PBS, RuCl3, or venom solution mixture, which were pipetted into a disposable cup in a Thrombelastograph® hemostasis system (Model 5000, Haemonetics Inc., Braintree, MA, USA) at 37° C., and then rapidly mixed by moving the cup up against and then away from the plastic pin five times. The PBS, RuCl3, or venom solution mixtures was always the last constituent added prior to mixing and data collection. The following viscoelastic parameters described previously (see, Nielsen, V. G.; et al., Biometals 2016, 29, 913-919; Nielsen, V. G.; Losada, P. A. Basic Clin. Pharmacol. Toxicol. 2017, 120, 207-212; Nielsen, V. G.; Frank, N. J. Thromb. Thrombolysis 2019, 47, 533-539; Nielsen, V. G.; Bazzell, C. M. J. Thromb. Thrombolysis 2017, 43, 203-208; Nielsen, V. G.; Matika, R. W. Hum. Exp. Toxicol. 2017, 36, 727-733; Nielsen, V. G.; et al., Toxins 2018, 10, 322; Nielsen, V. G.; et al., Biometals 2018, 31, 51-59; Nielsen, V. G.; Frank, N. et al., Biometals 2018, 31, 951-959; Nielsen, V. G.; et al., Toxins 2019, 11, 94; Nielsen, V. G.; Frank, N. Hum Exp. Toxicol. 2019, 38, 216-226; Nielsen, V. G. J. Thromb. Thrombolysis 2019, 48, 256-262; Nielsen, V. G.; et al., Blood Coagul. Fibrinolysis 2019, 30, 379-384; Nielsen, V. G. J. Thromb. Thrombolysis 2019, 47, 73-79) were measured: time to maximum rate of thrombus generation (TMRTG): this is the time interval (minutes) observed prior to maximum speed of clot growth; maximum rate of thrombus generation (MRTG): this is the maximum velocity of clot growth observed (dynes/cm^2/s); and total thrombus generation (TTG, dynes/cm^2), the final viscoelastic resistance observed after clot formation. Data were collected until the clot strength reached its final plateau (maximum amplitude) that was stable for 3 min.
Thus, experiments wherein RuCl3 was dissolved in either dH2O or PBS were conducted with the final concentration of RuCl3 in plasma being 1 or 10 μM. Data were collected until maximum amplitude was observed.
Specific volumes of subsequently described plasma and chemical additives varied by condition but summated to 360 μl. Sample composition consisted of 320 μl of plasma; 16.4 μl of PBS, 20 μl of 200 mM CaCl2, and 3.6 μl of one of five subsequently described solutions, which were placed into a disposable cup in a computer-controlled Thrombelastograph® hemostasis system (Model 5000, Haemonetics Inc., Braintree, MA, USA) at 37° C., and then rapidly mixed by moving the cup up against and then away from the plastic pin five times before leaving the mixture between the cup and pin.

In experiment [2] the test system is C. scutulatus scutulatus (type B) venom. The experiment in a line: Rabbit model of subcutaneous envenomation, thrombelastography and vital signs. The class given is in vivo, New Zealand White rabbits. The note with it: n=1.
From the text: Male New Zealand White rabbits (2-3 kg) were procured from Charles River Laboratories (San Diego, CA, USA) and housed within our animal facility and allowed food and water ad libitum for at least 1 week prior to experimentation.
Rabbits were briefly restrained and had one ear closely clipped and cleaned with a 70% isopropyl alcohol pad. A 22 G plastic catheter was placed in the central ear artery and another similar catheter placed in the marginal ear vein; both catheters were connected to an end cap with a rubber diaphragm that allowed the withdrawal of blood samples and administration of medications. The animals were sedated intravenously with 1 mg/kg midazolam, with supplemental doses of 0.5-1 mg/kg provided during experimentation to maintain sedation. […] Heart rate (HR) and SpO2 were recorded at baseline and every 15 min thereafter until the end of the experiment.
An approximately 5 cm by 5 cm area of skin over either flank of the rabbit, midway between the lumbar spine and mid abdomen, was closely shaved and cleaned with a 70% isopropyl alcohol pad. A 1 cm circle was drawn with a felt tip marker in the center of this area, which served as the injection site for venom and antivenom as appropriate. After obtaining baseline HR value, SpO2 value, and the initial blood sample, venom was injected subcutaneously in the middle of the circle through a ⅝ inch long, 25 G needle. […]
The subject of experiment [3] is Pseudonaja textilis venom. The conditions noted are these: previously characterized by this laboratory; cited from earlier work.
Experiment [4] concerns Echis leucogaster venom. The conditions noted are these: previously characterized by this laboratory; cited from earlier work.
Experiment [5] has as its system C. scutulatus scutulatus venom. The note with it: CORM-2 as single agent; cited from earlier work.
The mark [6] stands for this setting: 10 vs 1 μM RuCl3 (final) dissolved in PBS.
[7] abbreviates: 10 vs 1 μM RuCl3 (final) dissolved in dH2O.

With `[Cl][Ru]([Cl])[Cl]` [RuCl3, ruthenium(III) chloride], in experiment [1], the “increase in MRTG values” is listed as 37-61%. The “maximum rate of thrombus generation (MRTG)” value is “increased” in experiment [1] (1 μM RuCl3 dissolved in PBS vs control conditions, preliminary investigation); “increase” in experiment [1] (setting [6]); “increase” in experiment [1] (setting [7]). Further, the “total thrombus generation (TTG)” value in experiment [1] (1 and 10 μM RuCl3 in dH2O or PBS, interaction of RuCl3 and fluid) is listed as “decreased”. Also, the “time to maximum rate of thrombus generation (TMRTG)” value in experiment [1] (setting [6]) is on record as “significantly decrease”; in experiment [1] (setting [7]) it was “significant decrease”. For the same compound, the “plasmatic TMRTG or TTG values” in experiment [1] (RuCl3 1 μM final in water or PBS vs plasma without RuCl3) is on record as “no significant differences”.

On to `[C-]#[O+].[C-]#[O+].[C-]#[O+].[C-]#[O+].[C-]#[O+].[C-]#[O+].[Cl][Ru][Cl].[Cl][Ru][Cl]` [CORM-2, tricarbonyldichlororuthenium(II) dimer], for which the “plasmatic velocity of clot formation and strength” value in experiment [2] (10 mg/kg CORM-2 injected into venom site 5 min after venom 11.2 mg/kg) was “appeared to preserve the velocity of clot formation and strength until the third hour after venom injection”. Further, the “plasmatic velocity of clot formation” value in experiment [2] (20 mg/kg CORM-2 injected into venom site after venom 11.2 mg/kg) is on record as “minimally affected for the three hours after venom injection”. The “CORM-2/ iRM Inhibition” value in experiment [3] and in experiment [4] was “Yes” throughout. For the same compound, the “anticoagulant effects of venom in vitro” value in experiment [5] was “very effectively abrogated”.
